The subject of one series is IL-1β, TNF-α, and IL-6. Put plainly: LPS-induced pro-inflammatory cytokine synthesis in PBMC, enzyme immunoassay. The conditions noted are these: 1 µg/mL JO-4, LPS-stimulated PBMC. The class given is cell-based, human. The method, then:
Human peripheral blood mononuclear cells (PBMC) were cultured with B-cell mitogen LPS (Gibco BRL, Grand Island, NY) 3 µg/mL) at 2 x 10^6/mL in 1.0 mL volumes in 24-well plates in the presence of either 1 µg/mL JO-4 or medium for 48 hr. In a 37°C incubator with 5% CO2. Culture supernatants were collected at the end of incubation period and were assayed by enzyme immunoassay for the presence of the cytokines: interleukin-1β,-6 and TNF-α. Results are expressed as inhibition of cytokine production.

The test system of series [1] is human PBMCs. Put plainly: Toxicity on human PBMC, trypan blue dye exclusion. The class given is cell-based. The conditions noted are these: 1.25, 2.5 and 5 µg/mL; 2, 5 and 7 days. As to the method:
In order to determine if JO-4 was toxic on human cells in vitro, human PBMCs were cultured in the absence or presence of varying concentrations of JO-4 (1.25, 2.5, and 5 µg/mL) for different days (2, 5 and 7 days). At the end of each incubation period, viability of cells was determined by trypan blue dye exclusion method.

Series [2] deals with human PBMCs. In words: PHA-induced proliferation of human PBMCs. The conditions noted are these: 1.25-50.0 µg/mL, 4 days. The class given is cell-based. As to the method:
Human PBMCs were cultured for 4 days in the absence or presence of varying concentrations of JO-4 (1.25, 2.5, 5.0, 10.0 and 50.0 µg/mL). PHA is a potent T-cell mitogen and stimulates T-cells to produce IL-2.

The next series deals with Mouse spleen cells. In words: LPS-induced murine lymphocyte proliferation in vitro. The class given is cell-based. The conditions noted are these: all concentrations tested (1.5 µg/mL-50 µg/mL); LPS 5 µg/ml, 48 hours. The method, then: LPS is a B-cell mitogen in mice and it is also known to induce pro-inflammatory cytokines such as TNF-α, IL-6 and IL-1β in both murine and human mononuclear cells (Cunningham, A.J., ed; Understanding Immunology 1978;Academic Press, Inc., New York, USA). Murine lymphocytes were stimulated with LPS in vitro in the absence or presence of varying concentrations of JO-4 (1.5, 2.5, 5.0, 10.0, and 50.0 µg/mL).

Series [3] is described as follows: Colorimetric MTT cytotoxicity assay, normal cervical ectoepithelial cells. It counts as cell-based. The conditions noted are these: human, crec-ec cells. (In general: Tetrazolium assays rely on reduction of a dye to a coloured formazan, in cell work by metabolically active cells.)
The next series concerns NK activity. In words: NK activity in vivo, spleen cells against YAC-1 targets, 51Cr-release. On the set-up: species or system Mice.
The nature of series [4]: Colorimetric MTT cytotoxicity assay, HMEC. It counts as cell-based. The conditions noted are these: human, read-out: IC50 concentration (cytotoxicity).
The test system of series [5] is renal carcinoma (CAKI-1) cells. Put plainly: Colorimetric MTT cytotoxicity assay, CAKI-1. The conditions noted are these: Homo sapiens; CAKI-1, 72 hours. The class given is cell-based. The method, then: The following materials and methods were employed in the non-limiting Examples set out below. Tumor cells: Human cervical epitheloid carcinoma (HeLa), human renal clear cell carcinoma (CAKI-1), human malignant melanoma (RPMI-7951) and mouse malignant melanoma (B16-F1) were procured from ATCC (Rockville, MD) and maintained in vitro with MEM medium (Mediatech, Inc., Herndon, VA) supplemented with 10% heat-inactivated fetal bovine serum (American Qualex, San Clemente, CA), 10mM glutamine, 100 U/ml penicillin, and 100 µg/ml streptomycin (Sigma Chemicals, Saint Louis, MO) (complete medium). […] Cell viability was assessed by trypan blue dye exclusion test and the cell number was adjusted to required concentration. Colorimetric MTT assay: Cytotoxic effects of the hypoestoxide compounds of formulas I and II (JO-4A) were determined in vitro by a colorimetric assay (Mosmann, T., J. Immunol. Methods, 65: 55-63, 1983). […] Mixing with a multichannel pipetter dissolved the dark blue crystals and the absorbance was measured at 545-650 nm using an ELISA plate reader. […] The tumors were measured with a microcaliper, and the tumor volume was calculated by the formula: Length x width x height x 0.5236 (Jungwirth, A. et al., Proc. Natl. Acad. Sci. USA, 94:5810-5813, 1997). […]

Some results are limits rather than exact numbers.

For the compound `C=C1C(=O)C[C@H]2C[C@@H]3O[C@@]3(C)CC[C@@H]3O[C@@]3(C)C[C@@H](OC(C)=O)[C@H]1C2(C)C` [JO-4, hypoestoxide], the “effect on pro-inflammatory cytokine synthesis” value with IL-1β, TNF-α, and IL-6 is “inhibitory or immunosuppressant effect”. Also, in the series on human PBMCs [1], the toxicity to lymphocytes entry is “not toxic”. In the series on human PBMCs [2], the “effect on PHA-induced proliferation of human lymphocytes” value is “inhibitory effect”. In addition, the “inhibition of LPS-induced proliferation of murine lymphocytes” value with Mouse spleen cells is on record as “more than 50%”.

On to `C=C1C(=O)CC2CC3OC3(C)CCC3OC3(C)CC(O)C1C2(C)C` (stereo not shown) [JO-4A], for which the cytotoxicity in series [3] (at the IC50 dose for HeLa (between 10 µM and 12.5 µM), read-out: cytotoxic effect) stood at 6%. The CC50 at 72 h in series [3] (normal cervical ectoepithelial cells, 72 hours, read-out: IC50 (cytotoxicity)) was over 100 µM; in series [4], 25 to 50 µM. Also, the “NK activity in vivo” value with NK activity (intravenous administration) and with NK activity (oral administration) was “inhibited” each time. Moreover, in series [5], the IC50 (commonly the point on the concentration scale where inhibition reaches its midpoint) lay within 20 to 40 µM.

For the origin of these results see patent publication EP0986381B1, “USE OF DITERPENES LIKE HYPOESTOXIDES FOR THE MANUFACTURE OF A MEDICAMENT FOR IMMUNOSUPPRESSION, ANTICANCER AND ANTIVIRAL TREATMENT” (Immune Modulation, Inc., priority 1997, dated 1998).
